Here are results for 14 compounds from ChEMBL document CHEMBL5291721, “A preclinical secondary pharmacology resource illuminates target-adverse drug reaction associations of marketed drugs” (Nat Commun, 2023).

The term AC50 denotes the concentration at which the activity in the assay is half-maximal. A lower AC50 goes with activity at low concentration.

Some results are limits rather than exact numbers.

In experiment [1] the target is Gamma-aminobutyric acid receptor subunit alpha-1/alpha-2/beta-2/gamma-2 (Homo sapiens, UniProt P14867+P18507+P47869+P47870). The experiment is classed as functional, cell-based.
Gamma-aminobutyric acid receptor subunit alpha-1/alpha-2/beta-2/gamma-2, sequence (P14867 whole entry): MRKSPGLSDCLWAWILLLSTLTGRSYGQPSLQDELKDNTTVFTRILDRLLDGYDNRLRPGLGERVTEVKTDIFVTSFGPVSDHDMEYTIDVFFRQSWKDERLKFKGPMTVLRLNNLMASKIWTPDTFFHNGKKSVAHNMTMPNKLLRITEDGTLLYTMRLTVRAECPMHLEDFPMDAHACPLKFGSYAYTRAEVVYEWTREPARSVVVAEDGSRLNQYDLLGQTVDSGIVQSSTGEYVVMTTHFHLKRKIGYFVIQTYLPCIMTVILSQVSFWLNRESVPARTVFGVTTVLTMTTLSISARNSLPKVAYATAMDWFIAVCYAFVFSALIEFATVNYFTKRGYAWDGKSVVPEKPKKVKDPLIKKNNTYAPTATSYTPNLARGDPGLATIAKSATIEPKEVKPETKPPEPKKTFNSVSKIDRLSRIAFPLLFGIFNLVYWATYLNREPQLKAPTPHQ
Gamma-aminobutyric acid receptor subunit alpha-1/alpha-2/beta-2/gamma-2, sequence (P47870 whole entry): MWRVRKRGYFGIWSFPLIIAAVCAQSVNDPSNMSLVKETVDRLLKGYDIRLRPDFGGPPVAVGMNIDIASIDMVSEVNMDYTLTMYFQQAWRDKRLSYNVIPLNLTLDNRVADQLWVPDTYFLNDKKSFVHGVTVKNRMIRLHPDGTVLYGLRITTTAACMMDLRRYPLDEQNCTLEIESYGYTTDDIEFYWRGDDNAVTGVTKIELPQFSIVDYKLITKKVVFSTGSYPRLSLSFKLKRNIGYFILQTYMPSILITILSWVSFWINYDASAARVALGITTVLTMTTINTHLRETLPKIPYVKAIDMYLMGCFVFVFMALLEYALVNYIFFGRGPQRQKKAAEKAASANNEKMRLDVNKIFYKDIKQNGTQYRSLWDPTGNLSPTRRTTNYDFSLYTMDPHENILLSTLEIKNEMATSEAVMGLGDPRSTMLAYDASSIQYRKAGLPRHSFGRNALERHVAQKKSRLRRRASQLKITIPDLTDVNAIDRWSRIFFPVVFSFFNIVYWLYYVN
Gamma-aminobutyric acid receptor subunit alpha-1/alpha-2/beta-2/gamma-2, sequence (P18507 whole entry): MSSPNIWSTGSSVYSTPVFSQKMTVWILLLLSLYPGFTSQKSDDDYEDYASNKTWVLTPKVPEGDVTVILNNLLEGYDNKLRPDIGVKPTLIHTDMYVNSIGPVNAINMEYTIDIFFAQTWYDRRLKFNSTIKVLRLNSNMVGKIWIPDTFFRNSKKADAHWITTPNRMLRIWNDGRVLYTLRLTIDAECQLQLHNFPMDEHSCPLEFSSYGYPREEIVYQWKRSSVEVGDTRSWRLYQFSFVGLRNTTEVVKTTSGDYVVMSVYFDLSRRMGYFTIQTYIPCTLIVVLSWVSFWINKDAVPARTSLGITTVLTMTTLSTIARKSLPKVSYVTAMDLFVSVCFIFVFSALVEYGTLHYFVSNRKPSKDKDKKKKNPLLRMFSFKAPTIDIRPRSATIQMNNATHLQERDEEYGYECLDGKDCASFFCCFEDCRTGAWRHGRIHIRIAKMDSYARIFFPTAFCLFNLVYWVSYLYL
Gamma-aminobutyric acid receptor subunit alpha-1/alpha-2/beta-2/gamma-2, sequence (P47869 whole entry): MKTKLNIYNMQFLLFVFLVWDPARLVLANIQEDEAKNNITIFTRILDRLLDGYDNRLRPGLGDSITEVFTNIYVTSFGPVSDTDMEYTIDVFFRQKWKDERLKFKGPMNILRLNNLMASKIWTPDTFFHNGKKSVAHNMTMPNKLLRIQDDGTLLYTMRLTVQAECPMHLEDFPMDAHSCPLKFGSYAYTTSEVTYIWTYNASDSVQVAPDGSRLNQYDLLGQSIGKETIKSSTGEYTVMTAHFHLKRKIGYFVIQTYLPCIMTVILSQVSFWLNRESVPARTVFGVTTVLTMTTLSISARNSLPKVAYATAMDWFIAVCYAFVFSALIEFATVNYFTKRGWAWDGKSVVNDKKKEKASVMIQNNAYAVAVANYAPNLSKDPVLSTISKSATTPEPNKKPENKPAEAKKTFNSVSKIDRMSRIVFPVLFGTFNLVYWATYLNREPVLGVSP
For experiment [2], the target named is Histamine H1 receptor (Homo sapiens, UniProt P35367). The experiment is classed as functional, cell-based.
Histamine H1 receptor, sequence (P35367 whole entry): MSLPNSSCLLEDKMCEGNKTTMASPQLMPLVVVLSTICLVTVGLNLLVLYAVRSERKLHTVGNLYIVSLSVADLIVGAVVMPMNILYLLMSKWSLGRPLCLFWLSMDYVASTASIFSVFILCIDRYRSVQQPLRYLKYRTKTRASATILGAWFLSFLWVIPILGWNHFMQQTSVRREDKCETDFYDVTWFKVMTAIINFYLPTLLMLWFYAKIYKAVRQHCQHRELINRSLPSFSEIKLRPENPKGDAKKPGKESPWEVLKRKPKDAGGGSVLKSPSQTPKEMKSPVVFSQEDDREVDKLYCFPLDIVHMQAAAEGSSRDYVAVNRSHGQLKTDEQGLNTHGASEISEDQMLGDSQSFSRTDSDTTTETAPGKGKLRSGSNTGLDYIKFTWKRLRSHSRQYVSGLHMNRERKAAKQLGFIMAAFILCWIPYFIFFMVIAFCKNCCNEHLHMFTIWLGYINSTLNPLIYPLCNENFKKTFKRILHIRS
In experiment [3] the target is T1, Alpha-1A adrenergic receptor (Homo sapiens, UniProt P35348).
T1 sequence (P35348 whole entry): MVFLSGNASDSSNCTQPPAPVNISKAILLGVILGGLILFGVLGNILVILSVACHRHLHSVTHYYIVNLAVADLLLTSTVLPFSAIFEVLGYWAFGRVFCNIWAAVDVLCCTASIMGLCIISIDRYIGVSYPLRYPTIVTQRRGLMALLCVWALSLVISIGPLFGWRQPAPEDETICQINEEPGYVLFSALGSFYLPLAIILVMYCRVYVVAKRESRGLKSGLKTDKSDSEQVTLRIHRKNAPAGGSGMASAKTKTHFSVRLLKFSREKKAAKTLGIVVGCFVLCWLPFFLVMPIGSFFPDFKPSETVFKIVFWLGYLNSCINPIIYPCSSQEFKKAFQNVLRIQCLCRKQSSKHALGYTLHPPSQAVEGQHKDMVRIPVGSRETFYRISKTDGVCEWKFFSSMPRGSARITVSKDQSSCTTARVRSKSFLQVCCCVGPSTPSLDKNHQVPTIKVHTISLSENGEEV

In experiment [4] the target is T2, Muscarinic acetylcholine receptor M4 (Homo sapiens, UniProt P08173).
T2 sequence (P08173 whole entry): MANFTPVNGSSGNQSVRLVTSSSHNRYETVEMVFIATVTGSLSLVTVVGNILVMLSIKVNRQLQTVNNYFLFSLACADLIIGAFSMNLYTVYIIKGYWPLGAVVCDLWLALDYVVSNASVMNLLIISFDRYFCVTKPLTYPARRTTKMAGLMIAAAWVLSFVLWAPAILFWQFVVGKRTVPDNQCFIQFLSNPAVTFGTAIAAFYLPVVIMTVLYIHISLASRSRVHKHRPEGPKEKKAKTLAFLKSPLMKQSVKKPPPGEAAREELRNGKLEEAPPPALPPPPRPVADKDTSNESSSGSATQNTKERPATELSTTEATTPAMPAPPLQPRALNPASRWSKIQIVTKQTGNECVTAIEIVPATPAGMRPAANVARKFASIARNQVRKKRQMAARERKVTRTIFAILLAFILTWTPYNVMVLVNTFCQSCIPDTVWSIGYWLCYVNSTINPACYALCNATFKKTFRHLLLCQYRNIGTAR

For experiment [5], the target named is D(1A) dopamine receptor (Homo sapiens, UniProt P21728).
D(1A) dopamine receptor, sequence (P21728 whole entry): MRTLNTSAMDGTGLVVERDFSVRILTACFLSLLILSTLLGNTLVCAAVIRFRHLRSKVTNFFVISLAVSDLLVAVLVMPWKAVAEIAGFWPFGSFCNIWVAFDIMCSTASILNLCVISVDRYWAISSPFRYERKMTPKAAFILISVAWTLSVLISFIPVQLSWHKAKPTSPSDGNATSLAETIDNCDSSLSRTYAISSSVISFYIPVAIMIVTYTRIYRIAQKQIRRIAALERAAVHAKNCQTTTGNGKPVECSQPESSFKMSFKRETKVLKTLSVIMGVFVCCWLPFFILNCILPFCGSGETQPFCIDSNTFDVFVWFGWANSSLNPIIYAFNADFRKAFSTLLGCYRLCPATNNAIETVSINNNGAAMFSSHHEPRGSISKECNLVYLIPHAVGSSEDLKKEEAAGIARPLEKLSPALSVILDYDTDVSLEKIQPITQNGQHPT
Experiment [6] concerns the target Gamma-aminobutyric acid type B receptor subunit 1 (Homo sapiens, UniProt Q9UBS5).
Experiment [7] concerns the target 5-hydroxytryptamine receptor 6 (Homo sapiens, UniProt P50406).
The target in experiment [8] is 5-hydroxytryptamine receptor 7 (Homo sapiens, UniProt P34969).
5-hydroxytryptamine receptor 7, sequence (P34969 whole entry): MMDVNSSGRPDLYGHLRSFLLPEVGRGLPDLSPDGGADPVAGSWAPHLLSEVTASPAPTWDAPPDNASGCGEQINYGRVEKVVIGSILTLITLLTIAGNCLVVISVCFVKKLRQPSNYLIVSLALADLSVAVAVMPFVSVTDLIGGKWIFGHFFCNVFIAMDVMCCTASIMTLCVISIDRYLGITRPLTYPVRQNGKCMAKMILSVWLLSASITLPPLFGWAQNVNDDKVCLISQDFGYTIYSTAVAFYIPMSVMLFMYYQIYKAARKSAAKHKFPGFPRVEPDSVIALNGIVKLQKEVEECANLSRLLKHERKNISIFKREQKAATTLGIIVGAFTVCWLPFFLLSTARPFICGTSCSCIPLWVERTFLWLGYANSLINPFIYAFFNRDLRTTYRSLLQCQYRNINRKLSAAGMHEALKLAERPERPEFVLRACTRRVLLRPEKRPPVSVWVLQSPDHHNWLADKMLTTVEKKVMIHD
Experiment [9] concerns the target Substance-P receptor (Homo sapiens, UniProt P25103).
Experiment [10] deals with T3, Substance-K receptor (Homo sapiens, UniProt P21452).
T3 sequence (P21452 whole entry): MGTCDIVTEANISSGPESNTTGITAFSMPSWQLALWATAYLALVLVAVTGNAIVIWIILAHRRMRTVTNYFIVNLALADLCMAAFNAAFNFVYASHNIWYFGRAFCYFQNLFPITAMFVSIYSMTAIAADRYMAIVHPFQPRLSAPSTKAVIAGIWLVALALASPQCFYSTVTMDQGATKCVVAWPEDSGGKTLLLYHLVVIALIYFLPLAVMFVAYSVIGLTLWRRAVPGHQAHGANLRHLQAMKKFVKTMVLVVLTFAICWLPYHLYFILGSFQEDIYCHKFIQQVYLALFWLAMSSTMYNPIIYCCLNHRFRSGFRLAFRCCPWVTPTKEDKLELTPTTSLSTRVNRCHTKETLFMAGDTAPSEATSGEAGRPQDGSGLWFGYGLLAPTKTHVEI

The target in experiment [11] is T4, Corticotropin-releasing factor receptor 1 (Homo sapiens, UniProt P34998).
T4 sequence (P34998 whole entry): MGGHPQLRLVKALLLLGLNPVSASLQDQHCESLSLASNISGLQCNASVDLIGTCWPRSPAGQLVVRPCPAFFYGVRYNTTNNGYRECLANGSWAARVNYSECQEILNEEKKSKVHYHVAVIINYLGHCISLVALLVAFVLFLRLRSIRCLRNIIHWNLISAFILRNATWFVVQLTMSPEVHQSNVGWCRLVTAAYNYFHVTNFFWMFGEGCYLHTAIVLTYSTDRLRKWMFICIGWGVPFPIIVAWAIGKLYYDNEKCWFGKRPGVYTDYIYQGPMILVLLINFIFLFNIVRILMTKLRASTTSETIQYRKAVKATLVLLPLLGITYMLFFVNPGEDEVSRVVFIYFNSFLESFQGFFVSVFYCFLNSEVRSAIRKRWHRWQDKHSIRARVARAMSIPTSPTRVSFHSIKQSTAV

Experiment [12] addresses T5, Gastric inhibitory polypeptide receptor (Homo sapiens, UniProt P48546).
T5 sequence (P48546 whole entry): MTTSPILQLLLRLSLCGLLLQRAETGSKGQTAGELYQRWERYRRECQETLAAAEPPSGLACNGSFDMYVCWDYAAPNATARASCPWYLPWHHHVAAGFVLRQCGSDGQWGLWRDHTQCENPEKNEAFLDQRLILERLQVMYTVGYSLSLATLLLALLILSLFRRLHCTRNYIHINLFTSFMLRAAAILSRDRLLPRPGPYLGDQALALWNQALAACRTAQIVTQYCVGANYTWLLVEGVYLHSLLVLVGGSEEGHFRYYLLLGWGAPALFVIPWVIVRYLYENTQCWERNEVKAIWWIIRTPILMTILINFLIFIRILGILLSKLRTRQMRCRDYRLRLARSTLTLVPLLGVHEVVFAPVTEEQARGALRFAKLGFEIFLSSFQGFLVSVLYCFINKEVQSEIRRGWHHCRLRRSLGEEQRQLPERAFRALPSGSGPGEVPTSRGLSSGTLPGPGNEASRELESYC
Also: assay procedure not described here.

Substance-P receptor, sequence (P25103 whole entry): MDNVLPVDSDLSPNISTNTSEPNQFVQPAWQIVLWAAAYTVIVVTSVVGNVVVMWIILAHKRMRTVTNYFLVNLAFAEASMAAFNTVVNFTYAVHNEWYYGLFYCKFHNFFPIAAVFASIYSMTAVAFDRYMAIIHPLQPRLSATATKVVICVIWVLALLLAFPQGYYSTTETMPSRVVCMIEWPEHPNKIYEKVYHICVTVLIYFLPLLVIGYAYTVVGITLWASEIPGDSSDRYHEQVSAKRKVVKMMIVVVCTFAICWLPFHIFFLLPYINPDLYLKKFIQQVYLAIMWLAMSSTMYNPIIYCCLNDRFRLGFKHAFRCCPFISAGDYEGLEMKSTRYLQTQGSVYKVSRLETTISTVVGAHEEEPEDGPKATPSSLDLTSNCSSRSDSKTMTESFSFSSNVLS
5-hydroxytryptamine receptor 6, sequence (P50406 whole entry): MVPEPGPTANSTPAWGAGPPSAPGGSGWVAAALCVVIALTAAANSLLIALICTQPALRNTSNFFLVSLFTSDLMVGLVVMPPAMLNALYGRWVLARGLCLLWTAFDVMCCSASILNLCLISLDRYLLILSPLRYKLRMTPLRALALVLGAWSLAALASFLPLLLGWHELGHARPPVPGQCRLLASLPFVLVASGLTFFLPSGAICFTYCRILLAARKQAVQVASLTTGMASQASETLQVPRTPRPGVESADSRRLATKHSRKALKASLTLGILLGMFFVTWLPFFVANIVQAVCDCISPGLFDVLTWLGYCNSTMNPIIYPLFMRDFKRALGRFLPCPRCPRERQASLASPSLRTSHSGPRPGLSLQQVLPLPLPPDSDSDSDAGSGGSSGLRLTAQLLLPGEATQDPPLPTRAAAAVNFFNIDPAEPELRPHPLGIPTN

For `CN(C)C/C=C/C(=O)Nc1cc2c(Nc3ccc(F)c(Cl)c3)ncnc2cc1O[C@H]1CCOC1` [AFATINIB], the AC50 in [1] and in experiment [2] was > 30 µM each time.
`O=C(/C=C/c1cccc(S(=O)(=O)Nc2ccccc2)c1)NO` [BELINOSTAT]: the AC50 was > 30 µM in [3]; > 10 µM in [4]; > 30 µM in [5]; > 10 µM in experiment [6]; 2.47 µM in experiment [7]; > 10 µM in [8]. The AC50 in [9] and in [10] was > 10 µM each time.
As to `CC(O)(CS(=O)(=O)c1ccc(F)cc1)C(=O)Nc1ccc(C#N)c(C(F)(F)F)c1` (centres undefined) [BICALUTAMIDE], the AC50 is > 30 µM in experiment [11]; > 10 µM in [6]; > 30 µM in [12]; > 10 µM in experiment [7]; > 10 µM in experiment [8]; > 10 µM in experiment [9].
For the compound `O=C(O)COCCN1CCN(C(c2ccccc2)c2ccc(Cl)cc2)CC1` (centres undefined) [CETIRIZINE], the half-maximal activity concentration (AC50) was > 30 µM in experiment [11], > 30 µM in [12] and > 10 µM in [9].
Regarding `NC[C@H]1CC[C@H](C(=O)Oc2ccc(CCC(=O)O)cc2)CC1` [CETRAXATE], the AC50 in experiment [3] and in experiment [5] was > 30 µM throughout.
On to `C[C@@H]1C[C@H]2[C@@H]3C[C@H](F)C4=CC(=O)C=C[C@]4(C)[C@@]3(F)[C@@H](O)C[C@]2(C)[C@@]1(OC(=O)c1ccco1)C(=O)SCF` [FLUTICASONE FUROATE], for which the half-maximal activity concentration (AC50) in experiment [4], in experiment [6], in experiment [7], in experiment [8] and in experiment [10] was > 10 µM each time.
With `CNCCc1ccc(OC(=O)C(C)C)c(OC(=O)C(C)C)c1` [IBOPAMINE], the AC50 in experiment [1] is > 30 µM.
Turning to `CN(C)CCCN1c2ccccc2CCc2ccccc21` [IMIPRAMINE], the AC50 in [4] was 1.07 µM; in [11] it was > 30 µM; in experiment [12], > 30 µM; in experiment [7], 0.313 µM; in [8] it was > 10 µM; in experiment [9], > 10 µM. Also, in [10], the AC50 was > 10 µM.
As to `CN(Cc1cnc2nc(N)nc(N)c2n1)c1ccc(C(=O)N[C@@H](CCC(=O)O)C(=O)O)cc1` [METHOTREXATE], the AC50 in experiment [11] and in experiment [12] was > 30 µM in each case.
With `OC[C@H]1O[C@@H](n2cnc3c2NC=NC[C@H]3O)C[C@@H]1O` [PENTOSTATIN], the AC50 in [1] and in experiment [2] was > 30 µM throughout.
Consider `CN[C@@H](C)[C@@H](O)c1ccccc1` [PSEUDOEPHEDRINE], for which the AC50 in [11] was > 30 µM; in experiment [12], > 30 µM; in experiment [9], > 10 µM.
Take `O=C1OC(OC(=O)c2cccnc2Nc2cccc(C(F)(F)F)c2)c2ccccc21` (centres undefined) [TALNIFLUMATE]: the AC50 in experiment [1] and in experiment [2] was > 30 µM each time.
Consider `O=S1(=O)CCN(CN2CCS(=O)(=O)NC2)CN1` [TAUROLIDINE], for which the AC50 in [3], in experiment [5], in [1] and in [2] was > 30 µM in each case.
In the case of `COc1ccc2c(C(=S)N(C)CC(=O)O)cccc2c1C(F)(F)F` [TOLRESTAT], the AC50 in experiment [3] and in experiment [5] was > 30 µM throughout.
